Source: ChEMBL document CHEMBL4422646, “Synthesis and biological evaluation of 3-amino-, 3-alkoxy- and 3-aryloxy-6-(hetero)arylpyridazines as potent antitumor agents” (Bioorg Med Chem Lett, 2019)

How the values were obtained:
Caco-2 = experiment: Antiproliferative activity against human Caco2 cells after 48 hrs by Hoechst 33342 staining-based assay; type: functional, cell-based; conditions: Caco-2, 48 h
PC-3 = experiment: Antiproliferative activity against human PC3 cells after 48 hrs by Hoechst 33342 staining-based assay; type: functional, cell-based; conditions: PC-3, 48 h
HaCaT = experiment: Antiproliferative activity against human HaCaT cells after 48 hrs by Hoechst 33342 staining-based assay; type: cell-based
Huh-7 = experiment: Antiproliferative activity against human HuH7 cells after 48 hrs by Hoechst 33342 staining-based assay; type: functional, cell-based; conditions: Huh-7, 48 h
HCT-116 = experiment: Antiproliferative activity against human HCT116 cells after 48 hrs by Hoechst 33342 staining-based assay; type: functional, cell-based; conditions: HCT-116, 48 h
Fibroblast = experiment: Antiproliferative activity against human fibroblast cells after 48 hrs by Hoechst 33342 staining-based assay; type: cell-based
NCI-H727 = experiment: Antiproliferative activity against human NCI-H727 cells after 48 hrs by Hoechst 33342 staining-based assay; type: functional, cell-based; conditions: NCI-H727, 48 h
MDA-MB-231 = experiment: Antiproliferative activity against human MDA-MB-231 cells after 48 hrs by Hoechst 33342 staining-based assay; type: functional, cell-based; conditions: MDA-MB-231, 48 h

Measured: IC50

CCOC(=O)c1ccc(-c2ccc(OC(C)C)nn2)cc1
> 25 µM: all assays above

CCOC(=O)c1ccc(-c2ccc(OCC)nn2)cc1
> 25 µM: all assays above

CCN(CC)c1ccc(-c2cccc(OC)c2)nn1
> 25 µM: all assays above

N#Cc1ccc(Oc2ccc(-c3ccccc3)nn2)cc1
> 25 µM: all assays above

CCN(CC)c1ccc(-c2cccc(C(F)(F)F)c2)nn1
> 25 µM: all assays above

CCOC(=O)c1cccc(-c2ccc(N3CCOCC3)nn2)c1
> 25 µM: all assays above

COc1ccc(-c2ccc(Oc3ccccc3)nn2)cc1
> 25 µM: all assays above

Fc1ccc(-c2ccc(N3CCOCC3)nn2)cc1
> 25 µM: all assays above

CC(=O)c1cccc(-c2ccc(OCc3ccccc3)nn2)c1
> 25 µM: all assays above

CCN(CC)c1ccc(-c2cccc(C#N)c2)nn1
> 25 µM: all assays above

CCOC(=O)c1ccc(-c2ccc(N3CCOCC3)nn2)cc1
> 25 µM: all assays above

c1ccc2nc(-c3ccc(N4CCOCC4)nn3)ccc2c1
> 25 µM: all assays above

Cc1cccc(-c2ccc(N3CCOCC3)nn2)c1
> 25 µM: all assays above

CCN(CC)c1ccc(-c2cccc(Cl)c2)nn1
> 25 µM: all assays above

COc1ccc(-c2ccc(N3CCOCC3)nn2)cc1
> 25 µM: all assays above

CCCCOc1ccc(-c2ccc(C(=O)OCC)cc2)nn1
> 25 µM: all assays above

CCN(CC)c1ccc(-c2ccc(C(=O)O)cc2)nn1
> 25 µM: all assays above

c1cncc(-c2ccc(N3CCOCC3)nn2)c1
> 25 µM: all assays above

Cc1cccc(-c2ccc(Oc3ccc(F)cc3)nn2)c1
> 25 µM: all assays above

CCOC(=O)c1ccccc1-c1ccc(N2CCOCC2)nn1
> 25 µM: all assays above

c1cc(-c2ccc(N3CCOCC3)nn2)cs1
> 25 µM: all assays above
